# Experimental data from patent publication US9440969B2, “Compounds and methods for kinase modulation, and indications therefor” (PLEXXIKON INC., priority 2009, dated 2016).
# Key:
# CYP3A4(BQ) = CYP3A4(BQ) (Homo sapiens, UniProt P08684); test: CYP3A4 inhibition (substrate BQ); assay type: in vitro ADME; settings: read-out: Cyp IC50 (μM) 3A4(BQ)
# Description: CYP (Cytochrome P450) enzymes are the major drug metabolizing enzymes present in the liver. The inhibition of CYP enzyme activity (IC50) for each of CYP1A2, CYP2C19, CYP2C9, CYP2D6, CYP3A4(BFC) and CYP3A4(BQ) is determined for compounds, where inhibition of metabolism of a known substrate leads to a decrease in the fluorescence of the metabolized product. The fluorescence of the product is monitored as a function of compound concentration. Compounds are dissolved in dimethyl sulfoxide to a concentration of 100 mM. These are diluted […], into 82 μL of acetonitrile. An 11 μL aliquot of this solution is then added to 204 μL of cofactor mix (1.3% NADPH Regeneration system Solution A, 1.04% NADPH Regeneration system Solution B from BD Biosciences, 5% acetonitrile and 0.05% dimethyl sulfoxide). These are then serially diluted 1:1 (160 μL to 160 μL co-factor mix) for a total of 10 points. A 10 μL aliquot of this final mixture is dispensed into 384 well assay plates and incubated for 10 minutes at 37° C. Enzyme and substrate mix (10 μL; 0.5 pmol CYP1A2/5 μM CEC; 1.0 pmol CYP2C9/75 μM MFC; 0.5 pmol CYP2C19/25 μM CEC; 1.5 pmol CYP2D6/1.5 μM AMMC; 1.0 pmol CYP3A4/50 μM BFC; or 1.0 pmol CYP3A4/40 μM BQ) is added to these assay plates. Assay plates are incubated at 37° C. (CYP1A2-15 min; CYP2C9-45 min; CYP2C19, 2D6 and 3A4-30 min) and read in a Tecan Safire 2 plate reader (CYP1A2, 2C19 and 3A4 409 ex/460 em; CYP2C9 and 2D6 409 ex/530 em). The signal versus compound concentration is used to determine the IC50. The enzymes and substrates for this assay are obtained from BD Biosciences.
# B-Raf V600E = B-Raf V600E (Homo sapiens, UniProt P15056, V600E); test: B-Raf V600E kinase activity assay (AlphaScreen, biotin-MEK1 substrate); settings: 100 μM ATP, 100 nM biotin-MEK1, 45 minutes at room temperature, read-out: Biochemical activity (IC50 μM) V600E
# Outline: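 AlphaScreen detection of phospho-MEK1 uses anti-phospho-MEK1/2 antibody and donor/acceptor beads, incubated 3 h. The kinase step runs 45 min at room temperature with 0.1 ng enzyme, 100 nM biotin-MEK1 and 100 μM ATP in 50 mM HEPES pH 7.0. IC50 is derived from eight compound concentrations.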
# Sequence of B-Raf V600E (P15056 whole entry V600E): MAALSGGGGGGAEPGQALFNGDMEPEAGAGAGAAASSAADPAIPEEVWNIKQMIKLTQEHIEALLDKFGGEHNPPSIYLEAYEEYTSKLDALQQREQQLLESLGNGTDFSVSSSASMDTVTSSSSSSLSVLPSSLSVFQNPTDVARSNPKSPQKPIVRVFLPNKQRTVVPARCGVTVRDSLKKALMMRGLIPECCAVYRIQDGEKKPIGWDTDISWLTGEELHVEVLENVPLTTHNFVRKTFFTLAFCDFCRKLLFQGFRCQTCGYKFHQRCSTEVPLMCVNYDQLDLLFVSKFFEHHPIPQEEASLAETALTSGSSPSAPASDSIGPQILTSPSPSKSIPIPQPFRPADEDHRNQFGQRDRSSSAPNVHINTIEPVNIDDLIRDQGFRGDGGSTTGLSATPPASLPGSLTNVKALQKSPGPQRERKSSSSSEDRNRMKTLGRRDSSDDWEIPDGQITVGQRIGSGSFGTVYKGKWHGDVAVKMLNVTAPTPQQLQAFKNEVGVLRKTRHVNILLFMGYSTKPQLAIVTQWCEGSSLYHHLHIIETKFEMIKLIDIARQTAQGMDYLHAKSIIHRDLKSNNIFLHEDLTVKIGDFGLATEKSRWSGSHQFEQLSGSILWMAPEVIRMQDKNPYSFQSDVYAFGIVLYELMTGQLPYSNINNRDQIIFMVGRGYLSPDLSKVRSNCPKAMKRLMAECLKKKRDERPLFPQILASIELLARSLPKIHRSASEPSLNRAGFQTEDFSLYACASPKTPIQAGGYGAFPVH
# Sequence of CYP3A4(BQ) (P08684 whole entry): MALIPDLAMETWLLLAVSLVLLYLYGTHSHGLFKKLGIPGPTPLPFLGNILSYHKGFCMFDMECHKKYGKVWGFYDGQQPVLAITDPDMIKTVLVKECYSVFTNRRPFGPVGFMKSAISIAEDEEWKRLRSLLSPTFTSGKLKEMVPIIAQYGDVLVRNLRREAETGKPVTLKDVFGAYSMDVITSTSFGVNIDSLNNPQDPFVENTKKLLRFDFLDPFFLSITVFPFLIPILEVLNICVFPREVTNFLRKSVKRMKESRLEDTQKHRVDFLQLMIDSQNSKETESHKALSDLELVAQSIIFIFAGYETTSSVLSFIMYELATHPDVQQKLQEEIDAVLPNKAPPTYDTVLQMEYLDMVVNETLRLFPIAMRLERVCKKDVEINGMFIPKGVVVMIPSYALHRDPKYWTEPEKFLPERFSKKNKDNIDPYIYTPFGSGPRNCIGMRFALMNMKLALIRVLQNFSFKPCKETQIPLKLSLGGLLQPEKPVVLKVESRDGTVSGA
IC50 (CYP3A4(BQ)) [µM],IC50 (B-Raf V600E) [µM],SMILES
> 10,< 0.1,"Cc1ncc(-c2cnc3[nH]cc(C(=O)c4c(F)ccc(NS(=O)(=O)c5cc(F)ccc5F)c4F)c3c2)cn1 [P-1503, N-{2,4-Difluoro-3-[5-(2-methyl-pyrimidin-5-yl)-1H-pyrrolo[2,3-b]pyridine-3-carbonyl]-phenyl}-2,5-difluoro-benzenesulfonamide]"
,< 0.1,"CCCS(=O)(=O)Nc1ccc(F)c(C(=O)c2c[nH]c3ncc(-c4ccc5c(cnn5S(C)(=O)=O)c4)cc23)c1F [P-0016, propane-1-sulfonic acid {2,4-difluoro-3-[5-(1-methanesulfonyl-1H-indazol-5-yl)-1H-pyrrolo[2,3-b]pyridine-3-carbonyl]-phenyl}-amide]"
> 10,< 0.1,"Cc1ccc(-c2cnc3[nH]cc(C(=O)c4c(F)ccc(NS(=O)(=O)c5cc(F)ccc5F)c4F)c3c2)cn1 [P-1408, N-{2,4-Difluoro-3-[5-(6-methyl-pyridin-3-yl)-1H-pyrrolo[2,3-b]pyridine-3-carbonyl]-phenyl}-2,5-difluoro-benzenesulfonamide]"
,< 0.1,"CCCS(=O)(=O)Nc1ccc(F)c(C(=O)c2c[nH]c3ncc(-c4ccc5[nH]ncc5c4)cc23)c1F [P-0001, propane-1-sulfonic acid {2,4-difluoro-3-[5-(1H-indazol-5-yl)-1H-pyrrolo[2,3-b]pyridine-3-carbonyl]-phenyl}-amide]"
,< 0.1,"CCCS(=O)(=O)Nc1ccc(F)c(C(=O)c2c[nH]c3ncc(-c4ccc5c(cnn5C(C)=O)c4)cc23)c1F [P-0007, propane-1-sulfonic acid {3-[5-(1-acetyl-1H-indazol-5-yl)-1H-pyrrolo[2,3-b]pyridine-3-carbonyl]-2,4-difluoro-phenyl}-amide]"
,< 0.1,"CC(=O)N(c1ccc(F)c(C(=O)c2cn(C(C)=O)c3ncc(-c4ccc5c(cnn5C(C)=O)c4)cc23)c1F)S(=O)(=O)c1cc(F)ccc1F [P-0006, N-Acetyl-N-{3-[1-acetyl-5-(1-acetyl-1H-indazol-5-yl)-1H-pyrrolo[2,3-b]pyridine-3-carbonyl]-2,4-difluoro-phenyl}-2,5-difluoro-benzenesulfonamide]"
> 10,< 0.1,"CCCS(=O)(=O)Nc1ccc(F)c(C(=O)c2c[nH]c3ncc(-c4ccc5[nH]ccc5c4)cc23)c1F [P-0012, Propane-1-sulfonic acid {2,4-difluoro-3-[5-(1H-indol-5-yl)-1H-pyrrolo[2,3-b]pyridine-3-carbonyl]-phenyl}-amide]"
,< 0.1,"O=C(c1c(F)ccc(NS(=O)(=O)c2cc(F)ccc2F)c1F)c1c[nH]c2ncc(-c3ccc4[nH]ncc4c3)cc12 [P-0002, N-{2,4-Difluoro-3-[5-(1H-indazol-5-yl)-1H-pyrrolo[2,3-b]pyridine-3-carbonyl]-phenyl}-2,5-difluoro-benzenesulfonamide]"
> 10,< 0.1,"CCCS(=O)(=O)Nc1ccc(F)c(C(=O)c2c[nH]c3ncc(-c4cnn(C5CCNCC5)c4)cc23)c1F [P-1002, Propane-1-sulfonic acid {2,4-difluoro-3-[5-(1-piperidin-4-yl-1H-pyrazol-4-yl)-1H-pyrrolo[2,3-b]pyridine-3-carbonyl]-phenyl}-amide]"
,< 0.1,"CC(=O)n1ncc2cc(-c3cnc4[nH]cc(C(=O)c5c(F)ccc(NS(=O)(=O)c6cc(F)ccc6F)c5F)c4c3)ccc21 [P-0005, N-{3-[5-(1-Acetyl-1H-indazol-5-yl)-1H-pyrrolo[2,3-b]pyridine-3-carbonyl]-2,4-difluoro-phenyl}-2,5-difluoro-benzenesulfonamide]"
,< 0.1,"CC(=O)n1cc(C(=O)c2c(F)ccc(NS(=O)(=O)c3cc(F)ccc3F)c2F)c2cc(-c3ccc4c(cnn4C(C)=O)c3)cnc21 [P-0004, N-{3-[1-Acetyl-5-(1-acetyl-1H-indazol-5-yl)-1H-pyrrolo[2,3-b]pyridine-3-carbonyl]-2,4-difluoro-phenyl}-2,5-difluoro-benzenesulfonamide]"
> 10,< 0.1,"CCCS(=O)(=O)Nc1ccc(F)c(C(=O)c2c[nH]c3ncc(-c4ccc5[nH]cc(C)c5c4)cc23)c1F [P-0023, Propane-1-sulfonic acid {2,4-difluoro-3-[5-(3-methyl-1H-indol-5-yl)-1H-pyrrolo[2,3-b]pyridine-3-carbonyl]-phenyl}-amide]"
,< 0.1,"CCCS(=O)(=O)Nc1ccc(F)c(C(=O)c2c[nH]c3ncc(-c4csc(-n5ccnc5C)n4)cc23)c1F [P-1101, Propane-1-sulfonic acid (2,4-difluoro-3-{5-[2-(2-methyl-imidazol-1-yl)-thiazol-4-yl]-1H-pyrrolo[2,3-b]pyridine-3-carbonyl}-phenyl)-amide]"
> 10,< 0.1,"CCCS(=O)(=O)Nc1ccc(F)c(C(=O)c2c[nH]c3ncc(-c4ccc5cncnc5c4)cc23)c1F [P-0025, Propane-1-sulfonic acid [2,4-difluoro-3-(5-quinazolin-7-yl-1H-pyrrolo[2,3-b]pyridine-3-carbonyl)-phenyl]-amide]"
> 10,< 0.1,"CCCS(=O)(=O)Nc1ccc(F)c(C(=O)c2c[nH]c3ncc(-c4ccc5cn(C)nc5c4)cc23)c1F [P-0011, Propane-1-sulfonic acid {2,4-difluoro-3-[5-(2-methyl-2H-indazol-6-yl)-1H-pyrrolo[2,3-b]pyridine-3-carbonyl]-phenyl}-amide]"
,< 0.1,"CNC(=O)n1ncc2cc(-c3cnc4[nH]cc(C(=O)c5c(F)ccc(NS(=O)(=O)c6cc(F)ccc6F)c5F)c4c3)ccc21 [P-0003, 5-{3-[3-(2,5-Difluoro-benzenesulfonylamino)-2,6-difluoro-benzoyl]-1H-pyrrolo[2,3-b]pyridin-5-yl}-indazole-1-carboxylic acid methylamide]"
> 10,< 0.1,"CCCS(=O)(=O)Nc1ccc(F)c(C(=O)c2c[nH]c3ncc(-c4cccc5nn(C)cc45)cc23)c1F [P-0015, Propane-1-sulfonic acid {2,4-difluoro-3-[5-(2-methyl-2H-indazol-4-yl)-1H-pyrrolo[2,3-b]pyridine-3-carbonyl]-phenyl}-amide]"
> 10,< 0.1,"CCCS(=O)(=O)Nc1ccc(F)c(C(=O)c2c[nH]c3ncc(-c4ccc5ncsc5c4)cc23)c1F [P-0020, Propane-1-sulfonic acid [3-(5-benzothiazol-6-yl-1H-pyrrolo[2,3-b]pyridine-3-carbonyl)-2,4-difluoro-phenyl]-amide]"
> 10,< 0.1,"O=C(c1c(F)ccc(NS(=O)(=O)c2ccc(C(F)(F)F)cc2)c1F)c1c[nH]c2ncc(-c3cnn(C4CCNCC4)c3)cc12 [P-1004, N-{2,4-Difluoro-3-[5-(1-piperidin-4-yl-1H-pyrazol-4-yl)-1H-pyrrolo[2,3-b]pyridine-3-carbonyl]-phenyl}-4-trifluoromethyl-benzenesulfonamide]"
> 10,< 0.1,"CCCS(=O)(=O)Nc1ccc(F)c(C(=O)c2c[nH]c3ncc(-c4ccc5nn(C)cc5c4)cc23)c1F [P-0010, Propane-1-sulfonic acid {2,4-difluoro-3-[5-(2-methyl-2H-indazol-5-yl)-1H-pyrrolo[2,3-b]pyridine-3-carbonyl]-phenyl}-amide]"
